We go through four compounds from patent publication US11932898B2, “Precision therapeutic biomarker screening for cancer” (UNIVERSITY OF MIAMI, priority 2016, dated 2024).

One test relates to human tumor cell lines. Put plainly: component-wise IC50 values of the SANGER drug sensitivity dataset, clustered by generalized FMMR cell line components. It is filed as cell-based. To be noted: for magnitude of IC50s for overlapping component 12: component-wise IC50 boxplots, FIG. 11A-11E, cell line components 1, 2 and 12. From the text: Cancer cell lines have frequently been used as a convenient way of conducting such studies. For a systematic search of therapeutic biomarkers to a variety of cancer drugs, Garnett et al. (2012) screened 639 human tumor cell lines which represent much of the tissue-type and genetic diversity of human cancers with 130 drugs. These drugs, including approved drugs, drugs in development as well as experimental tool compounds, cover a wide range of targets and processes involved in cancer biology. In the Garnett et al. work, a range of 275-507 cell lines were screened for each drug. The effect of a 72 h drug treatment on cell viability was used to derive measures of drug sensitivity, including the half-maximal inhibitory concentration (IC50). In addition, the cell lines underwent sequencing of 64 known cancer genes, genome-wide analysis of copy number gains and losses, and expression profiling of 14,500 genes.
We applied the innovative techniques herein to analyzing the SANGER high throughput drug sensitivity dataset for cancer. […] The responses, made up with IC50 values from pairwise drug-cell-line screening, has some missing values. Therefore the data was first filtered by removing cell lines for which less than 50% of the drugs were tested, resulting in 591 cell lines remaining. In the remaining data, about 37.4% of the cell lines are with missing values. These missing values are imputed via the random forest imputation algorithm (Ishwaran, Kogalur, Blackstone and Lauer 2008; Stekhoven and Buhlmann 2012).
In order to identify patterns of cancer-specific therapeutic biomarkers, we employed method gEMseplasso in the analysis. […]
In the second step, the process uses an affinity-propagation clustering (APC) algorithm (Frey and Dueck 2007) to group the 140 drugs based on results from the first step. […] The pair-wise similarity matrix required by the algorithm as input data is calculated from the Euclidean distance between Za and Zb. […] The pair-wise similarity matrix is calculated from the Euclidean distance between Bk^a and Bk^b for k=1, . . . , 3. […]

Another test deals with soft tissue cancer. To be noted: soft tissue cancer resistant to standard chemotherapy (doxyrubicin); small sample size phase II study; cited from earlier work.
Test [1] has as its system chronic myeloid leukemia (CML). To be noted: cited from earlier work.

As to `COc1cc2ncn(-c3cc(OCc4ccccc4C(F)(F)F)c(C(N)=O)s3)c2cc1OC` [GW843682X], the “component with highest IC50s” value in the test on human tumor cell lines (among cell line components 1, 2, and 12) is listed as “component 2”. Also, the “magnitude of IC50s for overlapping component 12” value in the test with human tumor cell lines is “between those for component 1 and 2”.

`Nc1ccn([C@@H]2O[C@H](CO)[C@@H](O)C2(F)F)c(=O)n1` [Gemcitabine]: in the test with soft tissue cancer, the “effectiveness in soft tissue cancer” value is “effective”.

`Nc1ccccc1NC(=O)c1ccc(CNC(=O)OCc2cccnc2)cc1` [MS.275]: in the test on human tumor cell lines, the “magnitude of IC50s for overlapping component 12” value was “between those for component 1 and 2”.

With `Cc1ccc(NC(=O)c2ccc(CN3CCN(C)CC3)cc2)cc1Nc1nccc(-c2cccnc2)n1` [imatinib], the blood counts result in test [1] (CML patients who had exhausted standard treatment options, tested in 1998) was “returning to normal”. Moreover, the five-year survival rate in test [1] (CML patients) is 95%.
